Experimental data reported in patent US20180306819A1, “ANTI-PLATELET RESPONSE AND REACTIVITY TEST USING SYNTHETIC COLLAGEN” (JNC CORPORATION, priority 2012, published 2018).

Test system: normal human platelet rich plasma
Assay: Agonist-induced platelet aggregation in platelet rich plasma, PAP 8E aggregometer
Assay type: cell-based
Conditions: non-aspirinized plasma; for effect on ADP-induced aggregation: ADP 10 μM; for effect on Bio/Data collagen-induced aggregation: Bio/Data collagen 190 μg/mL; for effect on Chrono Log collagen-induced aggregation: Chrono Log collagen 10 μg/mL; for effect on arachidonic acid-induced aggregation: arachidonic acid 500 μg/mL; for effect on aggregation induced by lower concentrations of synthetic collagen: synthetic collagen 32 ng/mL and lower (32, 16, 8 ng/mL); for effect on aggregation induced by 64 ng/mL synthetic collagen: synthetic collagen 64 ng/mL
Protocol: ADP was obtained from Bio/Data Corporation, Horsham, Pa. Each vial was reconstituted with 1 mL of deionized water to make a 100 μM working solution. The final concentration of ADP in the aggregation cuvette was 10 μM.
Arachidonic acid was obtained from Bio/Data Corporation, Horsham, Pa. Each vial was reconstituted with 0.5 mL deionized water to make a 5 mg/mL working solution. The final concentration of arachidonic acid in the aggregation cuvette was 500 μg/mL.
Collagen was obtained from Bio/Data Corporation, Horsham, Pa. Each vial was reconstituted with 0.5 mL deionized water to make a 1.9 mg/mL working solution. The final concentration of Bio/Data collagen in the aggregation cuvette was 190 μg/mL.
Collagen was obtained from Chrono Log Corporation, Havertown, Pa. as a 1 mg/mL solution. A working solution of 100 μg/mL was made by dilution with physiologic saline. The final concentration of Chrono Log collagen in the aggregation cuvette was 10 μg/mL.
Synthetic collagen was provided by JNC Corporation, Yokohama, Japan at working concentrations of 80, 160, 320 and 640 ng/mL. The final concentrations of synthetic collagen in the aggregation cuvette were 64, 32, 16 and 8 ng/mL.
Approval for the collection of whole blood from healthy human volunteers was granted from the Institutional Review Board of the Health Sciences Division of Loyola University Chicago. Whole blood was drawn using a double syringe technique from the antecubital vein and anticoagulated by the addition of 1 part 3.2% sodium citrate to (9 parts blood to 1 part citrate). Citrated blood was centrifuged at 80×g at room temperature for 15 minutes to make platelet rich plasma (PRP). Supernatant PRP was collected and kept at room temperature in capped tubes. The remaining citrated blood was recentrifuged at 1,100×g for 15 minutes to make platelet poor plasma (PPP). The platelet count of the PRP was determined using an ICHOR II Analyzer, Helena Laboratories, Beaumont, Tex. Platelet count in the PRP was adjusted to 250,000-300,000/μl by the addition of homologous PPP.
Platelet aggregation was measured using a PAP 8E platelet aggregometer (Bio/Data). Each well was blanked using PPP. 25 μl of saline or antiplatelet drug and 200 μl of PRP were added to cuvettes containing magnetic stir bars and incubated for three minutes to equilibrate the sample to 37° C. 25 μl of agonist was added to each cuvette and the aggregation profile was monitored until a plateau was achieved. Results were tabulated in terms of maximal aggregation level. Under some reaction conditions, reversible aggregation was observed. This was most commonly observed with ADP and arachidonic acid-induced aggregation in the presence of ticagrelor or cilostazol. Final aggregation levels were also tabulated.

Question: Which results are given for `CCCSc1nc(N[C@@H]2C[C@H]2c2ccc(F)c(F)c2)c2nnn([C@@H]3C[C@H](OCCO)[C@@H](O)[C@H]3O)c2n1` [ticagrelor, (1S,2S,3R,5S)-3-[7-[[(1R,2S)-2-(3,4-difluorophenyl)cyclopropyl]amino]-5-propylsulfanyltriazolo[4,5-d]pyrimidin-3-yl]-5-(2-hydroxyethoxy)cyclopentane-1,2-diol]?
Answer: effect on ADP-induced aggregation: strongly inhibited; effect on Bio/Data collagen-induced aggregation: Neither Bio/Data collagen, Chrono Log collagen nor 64 ng/mL synthetic collagen was markedly impacted; effect on Chrono Log collagen-induced aggregation: Neither Bio/Data collagen, Chrono Log collagen nor 64 ng/mL synthetic collagen was markedly impacted; effect on arachidonic acid-induced aggregation: inhibited to a similar extent; effect on aggregation induced by lower concentrations of synthetic collagen: antiplatelet effects of Ticagrelor® could be identified; effect on aggregation induced by 64 ng/mL synthetic collagen: Neither Bio/Data collagen, Chrono Log collagen nor 64 ng/mL synthetic collagen was markedly impacted

Question: `O=C1CCc2cc(OCCCCc3nnnn3C3CCCCC3)ccc2N1` [cilostazol, Cilostazol] was tested. Which inhibition at 25 µM (Homo sapiens, Platelet, drug at 25 μM, read-out: inhibition of ADP-induced aggregation) did it give?
Answer: ~30%

Question: What about the “effect on ADP-induced aggregation” value of the same molecule?
Answer: minimally affected

Question: And the “effect on ADP-induced aggregation” value (listed as Cilostazol)?
Answer: weaker, concentration-dependent inhibition

Question: What about the “effect on Bio/Data collagen-induced aggregation” value of the same molecule?
Answer: did not inhibit aggregation

Question: What about the “effect on Chrono Log collagen-induced aggregation” value of the same molecule?
Answer: did not inhibit aggregation

Question: And the “effect on arachidonic acid-induced aggregation” value?
Answer: strongly inhibited

Question: And the “arachidonic acid-induced aggregation level” value (drug at concentrations ≥12.5 μM, 95% in the absence of drug)?
Answer: ~20%

Question: And the “effect on aggregation induced by lower concentrations of synthetic collagen” value?
Answer: the anti-platelet effect of higher concentrations of cilostazol could be observed

Question: And the “effect on aggregation induced by 64 ng/mL synthetic collagen” value?
Answer: did not inhibit aggregation

B1: abciximab: Fab Fragment Chimeric monoclonal antibody 7E3 (GP IIbIIIa receptor blocker) (antibody, chains of the INN, looked up, V domains shown)
VH: EVQLQQSGTVLARPGASVKMSCEASGYTFTNYWMHWVKQRPGQGLEWIGAIYPGNSDTSYIQKFKGKAKLTAVTSTTSVYMELSSLTNEDSAVYYCTLYDGYYVFAYWGQGTLVTVSA
VL: EIVLTQSPVTLSVTPGDSVSLSCRASRDISNNLHWFQQTSHESPRLLIKYASQSMSGIPSRFSGSGSGTDFTLSINSVETEDFGMYFCQQTNSWPYTFGGGTKLEIK
modifications: Fab
Question: Which results are given for B1?
Answer: effect on ADP-induced aggregation: inhibited aggregation; effect on Bio/Data collagen-induced aggregation: only observed at the 5 μg/mL concentration; effect on Chrono Log collagen-induced aggregation: only observed at the 5 μg/mL concentration; effect on arachidonic acid-induced aggregation: most sensitive for detecting the presence of abciximab; inhibition of agonist-induced aggregation (all agonists) (concentration range 1.25-5 μg/mL, FIG. 11): concentration-dependent inhibition; effect on aggregation induced by lower concentrations of synthetic collagen: most sensitive for detecting the presence of abciximab; effect on aggregation induced by 64 ng/mL synthetic collagen: inhibited by abciximab to a comparable degree
